Results from the NIST ThermoML archive (doi:10.1021/je060271a).

Conditions: 343.15 K, Liquid, Vibrating tube method

CCCCCCC(=O)OCC(COC(=O)CCCCCC)(COC(=O)CCCCCC)COC(=O)CCCCCC [pentaerythritol tetraheptanoate]
Conditions	mass density [kg/m3]
18415 kPa	953.8
18445 kPa	953.9
18482 kPa	953.8
18513 kPa	954
18540 kPa	953.8
18543 kPa	953.8
18564 kPa	954
18575 kPa	953.9
18587 kPa	953.9
18610 kPa	954
18613 kPa	954
18633 kPa	954
18645 kPa	953.9
18661 kPa	954.1
18683 kPa	953.9
18685 kPa	954.1
18708 kPa	954
18712 kPa	954
18737 kPa	953.9
18761 kPa	954.1
18790 kPa	954
18814 kPa	954
18842 kPa	954
18866 kPa	954.2
18891 kPa	954
18920 kPa	954.3
18944 kPa	954.2
18968 kPa	954.1
18992 kPa	954.2
19022 kPa	954.1
19041 kPa	954.1
19047 kPa	954.2
19065 kPa	954.3
19072 kPa	954.3
19094 kPa	954.3
19102 kPa	954.3
19119 kPa	954.4
19127 kPa	954.3
19144 kPa	954.3
19152 kPa	954.2
19168 kPa	954.4
19178 kPa	954.4
19198 kPa	954.4
19208 kPa	954.3
19224 kPa	954.4
19233 kPa	954.4
19249 kPa	954.4
19259 kPa	954.4
19275 kPa	954.4
19288 kPa	954.4
19314 kPa	954.4
19340 kPa	954.5
19360 kPa	954.5
19391 kPa	954.4
19421 kPa	954.6
19437 kPa	954.6
19446 kPa	954.5
19468 kPa	954.6
19478 kPa	954.4
19493 kPa	954.7
19503 kPa	954.7
19514 kPa	954.7
19534 kPa	954.6
19540 kPa	954.7
19561 kPa	954.5
19577 kPa	954.6
19587 kPa	954.6
19602 kPa	954.6
19618 kPa	954.6
19628 kPa	954.6
19644 kPa	954.5
19660 kPa	954.7
19670 kPa	954.7
19686 kPa	954.8
19697 kPa	954.8
19712 kPa	954.7
19729 kPa	954.7
19756 kPa	954.6
19783 kPa	954.7
19814 kPa	954.6
19842 kPa	954.8
19869 kPa	954.7
19902 kPa	954.8
19926 kPa	954.8
19958 kPa	954.9
19985 kPa	954.9
20013 kPa	954.8
20045 kPa	954.9
20073 kPa	955
20106 kPa	955
20134 kPa	954.9
20162 kPa	954.9
20189 kPa	955
20223 kPa	955
20251 kPa	955.1
20281 kPa	955
20292 kPa	955.2
20310 kPa	955.1
20321 kPa	955.1
20344 kPa	955.1
20350 kPa	955.1
20373 kPa	955.1
20384 kPa	955.1
20401 kPa	955
20412 kPa	955.1
20429 kPa	955.1
20463 kPa	955.2
20492 kPa	955.2
20504 kPa	955.2
20527 kPa	955.3
20555 kPa	955.2
20585 kPa	955.2
20620 kPa	955.3
20649 kPa	955.4
20679 kPa	955.3
20691 kPa	955.3
20708 kPa	955.3
20744 kPa	955.3
20773 kPa	955.5
20781 kPa	955.3
20803 kPa	955.4
20839 kPa	955.3
20869 kPa	955.5
20905 kPa	955.6
20935 kPa	955.4
20965 kPa	955.6
20996 kPa	955.5
21033 kPa	955.5
21064 kPa	955.6
21069 kPa	955.7
21096 kPa	955.6
21102 kPa	955.7
21133 kPa	955.6
21165 kPa	955.6
21196 kPa	955.7
21229 kPa	955.8
21267 kPa	955.7
21295 kPa	955.7
21320 kPa	955.9
21350 kPa	955.8
21376 kPa	955.8
21401 kPa	955.8
21432 kPa	955.8
21456 kPa	955.9
21483 kPa	955.8
21509 kPa	955.8
21540 kPa	955.9
21565 kPa	955.9
21591 kPa	955.9
21622 kPa	956
21647 kPa	956
21678 kPa	955.9
21704 kPa	955.9
21730 kPa	956.1
21760 kPa	956
21786 kPa	956.1
21813 kPa	956.2
21840 kPa	956.1
21872 kPa	956.1
21898 kPa	956.2
21930 kPa	956.1
21956 kPa	956
21983 kPa	956.1
22010 kPa	956.2
22042 kPa	956.2
22069 kPa	956.3
22096 kPa	956.1
22127 kPa	956.3
22129 kPa	956.2
22156 kPa	956.3
22161 kPa	956.2
22190 kPa	956.3
22195 kPa	956.4
22217 kPa	956.2
22244 kPa	956.3
22272 kPa	956.3
22300 kPa	956.3
22332 kPa	956.4
22360 kPa	956.5
22388 kPa	956.4
22421 kPa	956.4
22449 kPa	956.5
22478 kPa	956.4
22512 kPa	956.6
22540 kPa	956.6
22570 kPa	956.6
22599 kPa	956.7
22633 kPa	956.5
22661 kPa	956.6
22690 kPa	956.6
22704 kPa	956.7
22724 kPa	956.6
22740 kPa	956.7
22753 kPa	956.8
22782 kPa	956.6
22817 kPa	956.7
22846 kPa	956.8
22874 kPa	956.6
22910 kPa	956.7
22939 kPa	956.9
22970 kPa	956.7
23000 kPa	956.8
23030 kPa	956.9
23066 kPa	956.9
23095 kPa	956.9
23125 kPa	956.9
23162 kPa	957
23191 kPa	957
23227 kPa	957
23257 kPa	957.1
23288 kPa	957
23318 kPa	957
23355 kPa	957
23387 kPa	957.1
23417 kPa	957.1
23454 kPa	957.1
23484 kPa	957.2
23516 kPa	957.2
23552 kPa	957.1
23584 kPa	957.2
23615 kPa	957.2
23646 kPa	957.2
23681 kPa	957.3
